Experimental data reported in a melting point compilation (Tetko et al.).

Row | melting point | Structure (SMILES)
1 | 74 °C | CC(=O)Oc1ccc(N)cc1
2 | 189 °C | Cc1cc(O)ncc1[N+](=O)[O-]
3 | 360 °C | O=C1OC2(c3ccc(O)cc3Oc3cc(O)ccc32)c2ccc(N=C=S)cc21
4 | 104 °C | Nc1ncc(Br)cc1Br
5 | 48 °C | CCCCCOc1ccc(-c2ccc(C#N)cc2)cc1
6 | 132 to 133 °C | CN1C(=O)Cc2cc(Br)ccc21
7 | 157 °C | Cc1cccc(C(N)=O)c1C
8 | 99.8 °C | c1ccc2sc(SN(C3CCCCC3)C3CCCCC3)nc2c1
9 | 163 °C | CCCCCNc1cc(=O)oc2ccccc12
10 | 228 °C | Br/C(=C(/Br)c1ccccc1)c1ccccc1
11 | 122 °C | Nc1ccc(C=CC(=O)O)cc1
12 | 180 °C | O=c1[nH]cc(Cl)cc1Cl
13 | 158 °C | Cc1[nH]c(=O)n(C(C)C)c(=O)c1Br
14 | 185 to 190 °C | O=C(O)CCCc1ccc2ccc3cccc4ccc1c2c34
15 | 87 to 88 °C | CNCc1sc(-c2ccccc2)nc1-c1ccccc1
16 | 106 °C | S=C(Oc1ccccc1)Oc1ccccc1
17 | 82 to 88 °C | CC(C)NC(=O)CN1CCNCC1
18 | 115 to 117 °C | C[C@@]12CCC=C1[C@@H]1CC[C@H]3CC(=O)CC[C@]3(C)[C@H]1CC2
19 | 143 °C | Cc1ccc(C(c2ccc(C)o2)c2cc(I)cc(I)c2O)o1
20 | 144 °C | CN(C)CC(=O)N1c2ccccc2Sc2ccccc21
21 | 55 to 56 °C | O=S(=O)(C[C@@H](COCc1ccccc1)OCc1ccccc1)c1ccccc1

Row | melting point | Structure (SMILES)
22 | -48 °C | C1=CCNCC1
23 | 161 °C | CC(C)(C)c1cc(N)c(O)c(C(C)(C)C)c1
24 | 35 to 36 °C | O=C=Nc1ccc(Cl)c(C(F)(F)F)c1
25 | 56 to 58 °C | CC(C)(C)OC(=O)NCc1ncccc1F
26 | 100 to 103 °C | OC1OC(c2ccccc2)Cc2ccccc21 (stereo unspecified)
27 | 80.5 °C | Cc1cc(C)c(O)c(C)c1C
28 | 280 to 284 °C | Nc1ncc2nc[nH]c2n1
29 | 295 °C | O=C1NC(=O)C(c2ccccc2)(c2ccccc2)N1
30 | 180 °C | CC(C)(C)OC(=O)C(C)(C)ON=C(C(=O)O)c1csc(N)n1
31 | 74 to 78 °C | Cc1ccc2ccc(Cl)cc2n1
32 | 330 °C | Oc1ncc(O)c(O)n1
33 | 37 °C | Cc1c(F)ccc(C(=O)Cl)c1F
34 | 97 °C | CCOc1cccc(NC(C)=O)c1
35 | 195 to 199 °C | O=C(NO)c1ccc(Cl)cc1O
36 | -59 °C | ClCCC(Cl)Cl
37 | 86 °C | O=C(CBr)Oc1ccc([N+](=O)[O-])cc1
38 | 249 °C | N=C1NC(=O)CS1
39 | -3 °C | c1ccc(CCc2ccccn2)cc1
40 | 242 °C | O=C(Nc1ccc(Br)cc1)c1cc(Br)ccc1O
41 | 31 °C | O=C(O)CCC(F)(F)F
42 | 139 °C | O=C(OCc1ccc([N+](=O)[O-])cc1[N+](=O)[O-])c1ccccc1

Row | melting point | Structure (SMILES)
43 | 169 °C | CN(C(=O)C(C(F)(F)F)C(F)(F)F)C1CCCCC1
44 | 124 °C | CCc1oc2ccccc2c1C(=O)c1ccc(O)cc1
45 | 93 °C | Cc1ccc2c3c(c4c(c2c1)CCCC4)CCCC3
46 | 58 to 60 °C | Cc1ccc(-c2ccccc2)cc1N
47 | 62 °C | CC(=O)c1ccc(Cl)c(Cl)c1Cl
48 | 135 to 136 °C | N#Cc1cc(N)ccc1-n1cccc1
49 | 136 to 139 °C | O=c1oc(=O)n(Cc2ccccc2)c2ccccc12
50 | 248 to 252 °C | CCOC(=O)c1c(Nc2ccc(OC)cc2)sc2c(-c3ccccc3)c3c(N)n[nH]c3nc12
51 | 71 °C | COc1cccc(O)c1C=O
52 | 239 to 244 °C | Nc1ncc(Br)cn1
53 | 232 °C | O=C1CCc2ccc(O)cc2N1
54 | 113 to 115 °C | NNC(=O)c1cccc(OCc2ccccc2)c1
55 | 159 to 163 °C | O=C1OC(=O)c2c(F)cccc21
56 | 131 °C | Nc1cc(Br)cnc1Cl
57 | 189 °C | N#Cc1ccc(C[C@H](NC(=O)OCC2c3ccccc3-c3ccccc32)C(=O)O)cc1
58 | 43 °C | CCCCCCCC(=O)CCCCCCC
59 | 201 °C | CCOC(=O)C1=NN(c2ccccc2)C(=O)C1C(Br)C1(Br)C(=O)N(c2ccccc2)N=C1C(=O)OCC (stereo unspecified)
60 | 93 to 94 °C | CN1CCCN(c2ccc(C#N)cc2)CC1
61 | 88 °C | CCCCCCCC(=O)NN
62 | 123 to 124 °C | N#Cc1ccc(-c2ccc(C(F)(F)F)cn2)cc1
63 | 60 to 62 °C | O=C(Cl)c1ccc(Oc2cc(Cl)cc(Cl)c2)o1

Row | melting point | Structure (SMILES)
64 | 29 to 30 °C | Fc1ccc(Cc2ccc(F)cc2)cc1
65 | 293 °C | O=c1c(O)c(O)c1=O
66 | 208 °C | O=C(O)CCC(=O)c1ccc2c(c1)-c1cccc3cccc-2c13
67 | 37 °C | FC(F)(F)c1cncc(C(F)(F)F)c1
68 | 170 to 171 °C | CCN(CC)CC(=O)Nc1sc2c(c1C#N)CCCC2
69 | 270 °C | NCCCS(=O)(=O)O
70 | 143 to 148 °C | Clc1ccc2nc(Cl)c(Cl)nc2c1
71 | 256 °C | Nc1c(C(=O)O)cnc2c(C(=O)O)cnn12
72 | 124 to 126 °C | COC(=O)c1cc(C)n(CN(Cn2nc(C(=O)OC)cc2C)c2ccccc2)n1
73 | 26.2 °C | CC(C)(C)[N+](=O)[O-]
74 | 75.5 °C | CCOC(=O)C1(S(=O)(=O)c2ccc(C)cc2)CC1
75 | 6 °C | Oc1c(Cl)cccc1-c1ccccc1
76 | 95 to 96 °C | Brc1ccc(-c2cccs2)cc1
77 | 91 to 93 °C | CC(C)(C)OC(=O)N1CCC(Oc2ccccc2[N+](=O)[O-])CC1
78 | 126 to 128 °C | CS(=O)(=O)c1ccc(C(=O)CBr)cc1
79 | 126 to 129 °C | CSc1sc(Cl)c2c1C(=O)CC(C)(C)C2
80 | 88 to 89 °C | COC(=O)c1cc2ccccc2cn1
81 | 116 to 117 °C | COC(=O)c1ccc(CS(=O)(=O)Cl)cc1
82 | 166 °C | COC(=O)C=Cc1ccc(C=CC(=O)OC)c([N+](=O)[O-])c1
83 | 175 to 176 °C | O=Cc1sc(Br)c2c1OCCO2

Row | Structure (SMILES) | melting point
84 | O=[N+]([O-])c1cccc([N+](=O)[O-])c1CO | 85 to 95 °C
85 | S=C1NCCN1 | 203 °C
86 | O=C(Cl)c1nccs1 | 54 to 58 °C
87 | CCOC(=O)C(O)(c1ccc(N)c(OC)c1)C(F)(F)F (stereo unspecified) | 97 to 99 °C
88 | O=C(CCl)Nc1ccc(F)cc1 | 131 to 132 °C
89 | CN=C1CN(O)C(c2ccccc2)=c2cc(Cl)ccc2=N1 | 236 °C
90 | BrCc1cccc2nsnc12 | 89 to 92 °C
91 | CCC(C)n1c(=O)[nH]c(C)c(Br)c1=O (stereo unspecified) | 158 °C
92 | O=C(O)C1CSC(c2cccnc2)=N1 (stereo unspecified) | 180 to 181 °C
93 | COC(=O)[C@]1(O)CC2=C(c3c1cc(OC)nc3Cl)N(C)CCC2 | 153 °C
94 | CCCC(Cn1cncn1)c1ccc(Cl)cc1Cl (stereo unspecified) | 60.3 °C
95 | COc1cc(OC)nc(NC(=O)NS(=O)(=O)c2ncccc2C(F)(F)F)n1 | 180 °C
96 | COc1ccc(C(=CC(=O)N2CCOCC2)c2ccc(F)cc2)cc1OC | 108 °C
